Measurements: ChEMBL document CHEMBL4706661, “Synthesis and vasorelaxant evaluation of novel 7-methoxyl-2,3-disubstituted-quinoxaline derivatives” (2021)
Active and inactive are the calls of the source. The rule behind the calls is not given here.

Assays:
Thoracic aorta [1] = experiment: Vasorelaxant activity in C57 mouse thoracic aortic rings containing endothelium assessed as reduction in high extracellular K+-induced contractions measured for 16 mins by myograph assay; assay type: functional, tissue-based; conditions: dose 3-300 µM
Thoracic aorta [2] = experiment: Vasorelaxant activity in C57 mouse thoracic aortic rings assessed as reduction in high extracellular K+-induced contractions at 3 to 300 uM measured for 16 mins in absence of endothelium by myograph assay; assay type: functional, tissue-based; conditions: dose 3-300 µM
Thoracic aorta [3] = experiment: Vasorelaxant activity in C57 mouse thoracic aortic rings containing endothelium assessed as reduction in phenylephrine-induced contractions at 3 to 300 uM measured for 16 mins by myograph assay; assay type: functional, tissue-based; conditions: dose 3-300 µM
Thoracic aorta [4] = experiment: Vasorelaxant activity in C57 mouse thoracic aortic rings containing endothelium assessed as reduction in high extracellular K+-induced contractions at 3 to 300 uM pretreated with nitric oxide synthase inhibitor, L-NAME and measured for 16 mins by myograph method; assay type: functional, tissue-based; conditions: dose 3-300 µM
Thoracic aorta [5] = experiment: Vasorelaxant activity in C57 mouse thoracic aortic rings containing endothelium assessed as reduction in phenylephrine-induced contractions at 300 uM after 40 mins by myograph method; assay type: functional
Thoracic aorta [6] = experiment: Vasorelaxant activity in C57 mouse thoracic aortic rings assessed as reduction in phenylephrine-induced contractions at 3 to 300 uM measured for 16 mins in absence of endothelium by myograph method; assay type: functional, tissue-based; conditions: dose 3-300 µM
Thoracic aorta [7] = experiment: Vasorelaxant activity in C57 mouse thoracic aortic rings containing endothelium assessed as reduction in phenylephrine-induced contractions at 3 to 300 uM pretreated with nitric oxide synthase inhibitor, L-NAME and measured for 16 mins by myograph method; assay type: functional, tissue-based; conditions: dose 3-300 µM

Structure (SMILES) | Activity (Thoracic aorta [1]) | Activity (Thoracic aorta [2]) | Activity (Thoracic aorta [3]) | Activity (Thoracic aorta [4]) | inhibition at 300 µM (Thoracic aorta [5]) [%] | Activity (Thoracic aorta [6]) | Activity (Thoracic aorta [7])
COc1ccc2nc(Oc3ccc(-c4ccc(C#N)cc4)cc3)c(N3CCN(c4ccccc4)CC3)nc2c1 | Dose-dependent effect | Active | Active |  |  |  | 
COc1ccc2nc(Oc3ccc(-c4ccccc4)cc3)c(N3CCCC3)nc2c1 |  |  | inactive |  |  |  | 
COc1ccc2nc(Oc3ccc(-c4ccc(C#N)cc4)cc3)c(N3CCN(C)CC3)nc2c1 | Dose-dependent effect | Active | Active |  |  |  | 
CCN1CCN(c2nc3cc(OC)ccc3nc2N2CCCC2)CC1 | Dose-dependent effect | Active | Dose-dependent effect | Active | 50 | Active | Active
COc1ccc2nc(N3CCCC3)c(N3CCN(c4ccccc4)CC3)nc2c1 |  |  | inactive |  |  |  | 
COc1ccc2nc(N3CCCC3)c(N3CCOCC3)nc2c1 |  |  | inactive |  |  |  | 
COc1ccc2nc(NC#N)c(N3CCN(Cc4ccccc4)CC3)nc2c1 |  |  | inactive |  |  |  | 
COc1ccc2nc(N3CCCC3)c(N3CCN(C)CC3)nc2c1 | Dose-dependent effect | Active | Dose-dependent effect | Active | 50 | Active | Active
COc1ccc2nc(N3CCCC3)c(N3CCN(Cc4ccccc4)CC3)nc2c1 |  |  | inactive |  |  |  | 
COC(=O)C1CCN(c2nc3cc(OC)ccc3nc2N2CCCC2)CC1 | Dose-dependent effect | Active | Dose-dependent effect | Active | 72.7 | Active | Active
